The values below are quoted from earlier work in US20050250674A1, “Nutritional and food supplement preparation comprising creatine and orotic acid complexes, derivatives and analogs” (priority 2004, published 2005).

The structures appear in SMILES notation.

For this data set the following is noted: oral ingestion of about 20 to 30 g per day, divided between several doses, for several days.

For the compound `CN(CC(=O)O)C(=N)N` [creatine, methyl guanidine-acetic acid], the “increase in human skeletal muscle total creatine content” value is given as “greater than 20%”.
